Entries after “also recorded” stand apart in the source; their conditions may differ. Starred links: 1 amine or outer side, 2 acyl side, 3 side chain; linkers in the order of their positions; H or OH if unused. Non-standard residues stand in square brackets, D forms with d. Groups on a side chain read outwards from the residue. ξ: configuration not given here. *: point of attachment. Oic(3aξ,7aξ) = O=C(O)[C@@H]1CC2CCCCC2N1; hArg = N=C(N)NCCCC[C@H](N)C(=O)O; X1 = N=C(N)NCCCC[C@H](N)CN*; Dab = NCC[C@H](N)C(=O)O; CO = O=C([*:1])[*:2]
Assay: Human blood serum
Details: 37 °C, up to 96 h
In the case of H2N-DapU(ArgU)-Dab-Oic-Arg-OH, the cleaved bond is reported as “OicL3-ArgL4” and the not cleaved is reported as “urea bonds remained intact within the monitored time of the experiment”. With H2N-LysU(gDab)-Dab-Oic-Arg-OH the cleaved bond was “gDabL1'-Lys^UL1; also recorded: OicL3-ArgL4”, the fragment found was “C25H49N10O5+ (RT 5.43 min)” and the not cleaved was “urea bonds remained intact within the monitored time of the experiment”. In the case of “H-Dab(hArg^U)Dab-Oic-Arg-OH (H-[Dab]([CO-X1])[Dab][Oic(3aξ,7aξ)]R-OH; SMILES N=C(N)NCCCC[C@H](N)CNC(=O)NCC[C@H](N)C(=O)N[C@@H](CCN)C(=O)N1C2CCCCC2C[C@H]1C(=O)N[C@@H](CCCNC(=N)N)C(=O)O)”, the cleaved bond is reported as “OicL3-ArgL4; also recorded: DabL1-DabL2”, the fragment found is reported as “C25H49N10O5+ (RT 5.36/5.72 min); also recorded: C25H46N10O4+ (RT 6.44/6.64 min); also recorded: C19H36N7O4+ (RT 3.53 min); also recorded: C12H27N7O3+ (RT 1.21 min)” and the not cleaved is reported as “urea bonds remained intact within the monitored time of the experiment”. In the case of “Lys(hArg)-Dab-Oic-Arg (H-K(hArg)[Dab][Oic(3aξ,7aξ)]R-OH)”, the cleaved bond is reported as “hArgL1'-LysL1, major; also recorded: LysL1-DabL2; also recorded: OicL3-ArgL4” and the fragment found is reported as “C25H48N9O5+ (RT 2.87 min); also recorded: C19H36N7O4+ (RT 3.54 min)”.
